The numbers were not newly measured in patent US11793762B2, “Composition and method for reducing joint pain associated with hemarthrosis and hemophilic arthropathy” (UPEXMED CO. LTD., priority 2018, dated 2023), which cites them from elsewhere.

In brackets after ≈: the same amount, converted by molar mass.

As for `Cc1ccc(-c2cc(C(F)(F)F)nn2-c2ccc(S(N)(=O)=O)cc2)cc1` [Celecoxib], the solubility in water was 4300 µg/mL (≈ 11.3 mM).
